Source: patent US4416898A, “Therapeutic uses of methionine” (Pharmuka Laboratoires, priority 1982, dated 1983)

What was measured:
[1] = Water solubility and wettability of L-methionine; assay type: physicochemical; details: flakes
Parkinsonism = details: with L-Dopa; J. Amer. Med. Assoc. 230, 305, 1974; cited from earlier work
rats = details: IV; cited from earlier work
[2] = system: [^3 H] spiperone binding sites (lymphocytes from Parkinsonian patients); details: after treatment, before treatment 7±6
[3] = target: dopaminergic receptors (striatum) (Mus musculus, UniProt P61168)
dopaminergic receptors (striatum), sequence (P61168 whole entry): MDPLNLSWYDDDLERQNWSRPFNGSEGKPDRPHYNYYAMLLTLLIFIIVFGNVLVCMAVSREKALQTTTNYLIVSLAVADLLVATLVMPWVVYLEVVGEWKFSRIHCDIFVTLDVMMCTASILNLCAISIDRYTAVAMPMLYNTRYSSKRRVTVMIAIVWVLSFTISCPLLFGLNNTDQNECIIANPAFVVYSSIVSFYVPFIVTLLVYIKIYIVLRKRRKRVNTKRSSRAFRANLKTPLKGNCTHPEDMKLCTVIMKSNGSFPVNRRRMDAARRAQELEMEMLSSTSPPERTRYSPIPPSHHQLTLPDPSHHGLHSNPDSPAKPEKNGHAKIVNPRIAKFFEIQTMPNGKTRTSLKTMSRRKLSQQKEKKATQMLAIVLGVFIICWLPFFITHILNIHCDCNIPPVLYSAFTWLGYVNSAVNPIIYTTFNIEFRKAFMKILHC
Procedure: (§1) Since nude mice have no thymus gland, all of the lymphocytes of the spleen thereof are of the B type. Thus, these mice have the advantage of presenting pure B lumphocytes for observation. […] The [^3 H] spiperone bindings to striatal membranes (see Europ. J. Pharmacol. 50, 283, 1978) and intact B lymphocytes (see J. Pharm. Pharmacol. 33, 102, 1981) were performed in the same animal.

[4] = system: dopaminergic receptors (B lymphocytes); details: [^3 H spiperone] = 1 nM; L-methionine 500 mg/kg I.P. twice daily over 5 days; n = 10; *P < 0.01; control 17 ± 3
Procedure: as §1

Parkinsonian patients = details: 11 patients, 5 g/day, after 2 weeks, especially on akinesia, tremor and mood

## CSCC[C@H](N)C(=O)O [L-methionine]
[1]
  solubility in water: slightly soluble in water
  wettability: poorly wettable
Parkinsonism
  effect on L-Dopa effectiveness in Parkinsonism: may reverse the effectiveness of L-Dopa
rats
  LD50: 4500 mg/kg
[2]
  number of [^3 H] spiperone binding sites to lymphocytes: 98±19 fentomoles per 10^6 cells
[3]; KD of [^3 H] spiperone (not of L-methionine), striatum of treated mice, chronic treatment, control 0.17 nM
  affinity constant [KD]: 0.20 nM
[3]; [^3 H spiperone] = 0.3 nM, L-methionine 500 mg/kg I.P. twice daily over 5 days, n = 10, **P < 0.001, control 40 ± 1
  [^3 H] spiperone binding, striatum: 62 ± 3 fmoles/mg protein
[3]; [^3 H] spiperone, striatum of treated mice, chronic treatment, control 302
  number of binding sites [Bmax]: 491 fmoles/mg protein
[3]; [^3 H] spiperone, striatum, chronic treatment of L-methionine
  change in affinity constant [KD]: no change in the affinity constant was detected
[4]
  [^3 H] spiperone binding, B lymphocytes: 37 ± 5 fmoles/10^6 cells
Parkinsonian patients
  improvement of Parkinsonism: very good improvement
